ChEMBL document CHEMBL1165894, “Synthesis and pharmacological characterization of a novel nitric oxide-releasing diclofenac derivative containing a benzofuroxan moiety” (Eur J Med Chem, 2010)
Activity calls are given as the source filed them. No cut-off for these calls is given here.

Legend:
Blood [1] = test: Antiinflammatory activity in human whole blood assessed as inhibition of LPS-induced PGE2 production at 1 to 100 uM after 18 hrs by ELISA; assay type: functional, tissue-based
Blood [2] = test: Antiinflammatory activity in human whole blood assessed as inhibition of LPS-induced production at 0.01 to 100 uM after 18 hrs by ELISA
[3] = Induction of NO release in phosphate buffer containing L-cysteine at pH 7.4 assessed as nitrite level by Griess assay; assay type: physicochemical
Rattus norvegicus [4] = test: Toxicity in Wistar rat assessed as reduction in PGE2 level in gastric mucosa at 30 mg/kg, po; assay type: organism-based; design: dose 30 mg/kg, route oral; conditions: in vivo
Rattus norvegicus [5] = test: Antiinflammatory activity in Wistar rat assessed as reduction in carrageenan-induced paw edema at 100 mg/kg, ip after 0.5 to 4 hrs; assay type: functional, organism-based; design: dose 100 mg/kg

O=C(Cc1ccccc1Nc1c(Cl)cccc1Cl)OCc1ccc2no[n+]([O-])c2c1
Activity (Blood [1]): Active
Activity (Blood [2]): Active
Activity [3]: 372 nM
Activity (Rattus norvegicus [4]): Toxic
Activity (Rattus norvegicus [5]): Active
